Results reported in ChEMBL document CHEMBL1255186, “A novel 18F-labeled pyridyl benzofuran derivative for imaging of β-amyloid plaques in Alzheimer's brains” (Bioorg Med Chem Lett, 2010).
Active and inactive are the calls of the source. The calls are words filed in the database; no cut-off is given here.

Experiments:
[1] = tested on: Brain; experiment: Biodistribution in mouse brain at 444 kBq/50 uL after 10 mins; assay type: ADME, organism-based; details: in vivo
[2] = tested on: Blood; experiment: Biodistribution in mouse blood at 444 kBq/50 uL after 30 mins; assay type: ADME, organism-based; details: in vivo, 0.5 h
[3] = tested on: Brain; experiment: Biodistribution in mouse brain at 444 kBq/50 uL after 30 mins; assay type: ADME, organism-based; details: in vivo, 0.5 h
[4] = tested on: Brain; experiment: Biodistribution in mouse brain at 444 kBq/50 uL after 60 mins; assay type: ADME, organism-based; details: in vivo, 1 h
[5] = tested on: Blood; experiment: Biodistribution in mouse blood at 444 kBq/50 uL after 2 mins; assay type: ADME, organism-based; details: in vivo
[6] = tested on: Bone; experiment: Biodistribution in mouse bone at 444 kBq/50 uL after 60 mins; assay type: ADME, organism-based, Bone element; details: in vivo, 1 h
[7] = tested on: Brain; experiment: Biodistribution in mouse brain at 444 kBq/50 uL after 2 mins; assay type: ADME, organism-based; details: in vivo
[8] = tested on: Blood; experiment: Biodistribution in mouse blood at 444 kBq/50 uL after 10 mins; assay type: ADME, organism-based; details: in vivo
[9] = tested on: Bone; experiment: Biodistribution in mouse bone at 444 kBq/50 uL after 30 mins; assay type: ADME, organism-based, Bone element; details: in vivo, 0.5 h
[10] = tested on: Blood; experiment: Biodistribution in mouse blood at 444 kBq/50 uL after 60 mins; assay type: ADME, organism-based; details: in vivo, 1 h
[11] = Displacement of [125I]IMPY from amyloid beta 1-42
[12] = tested on: Bone; experiment: Biodistribution in mouse bone at 444 kBq/50 uL after 2 mins; assay type: ADME, organism-based, Bone element; details: in vivo
[13] = tested on: Bone; experiment: Biodistribution in mouse bone at 444 kBq/50 uL after 10 mins; assay type: ADME, organism-based, Bone element; details: in vivo
[14] = organism: Mus musculus; experiment: Reduction of amyloid beta40 level in Tg2576 mouse entorhinal cortex at 11.1 MBq; assay type: functional, tissue-based; details: 11.1 M, tested as the 18F-labelled form
[15] = tested on: Cortex; experiment: Reduction of amyloid beta40 level in Tg2576 mouse cortex at 11.1 MBq; assay type: functional, tissue-based; details: 11.1 M, tested as the 18F-labelled form
[16] = tested on: Hippocampus; experiment: Reduction of amyloid beta40 level in Tg2576 mouse hippocampus at 11.1 MBq; assay type: functional, tissue-based; details: 11.1 M, tested as the 18F-labelled form
[17] = organism: Mus musculus; experiment: Reduction of amyloid beta40 level in Tg2576 mouse dentate gyrus at 11.1 MBq; assay type: functional, tissue-based; details: 11.1 M, tested as the 18F-labelled form

Row | Drug uptake [1] [% ID/g] | Drug uptake [2] [% ID/g] | Drug uptake [3] [% ID/g] | Drug uptake [4] [% ID/g] | Drug uptake [5] [% ID/g] | Drug uptake [6] [% ID/g] | Drug uptake [7] [% ID/g] | Drug uptake [8] [% ID/g] | Drug uptake [9] [% ID/g] | Drug uptake [10] [% ID/g] | Ki [11] [nM] | Drug uptake [12] [% ID/g] | Drug uptake [13] [% ID/g] | Compound | Activity [14] | Activity [15] | Activity [16] | Activity [17]
1 | 3.75 | 1.76 | 2.78 | 2.44 | 2.83 | 1.42 | 5.16 | 2.13 | 1.11 | 1.98 | 0.9 | 1.61 | 1.33 | CN(C)c1ccc(-c2cc3cc(OCCOCCOCC[18F])ccc3o2)cn1 |  |  |  | 
2 |  |  |  |  |  |  |  |  |  |  |  |  |  | CN(C)c1ccc(-c2cc3cc(OCCOCCOCCF)ccc3o2)cn1 | Active | Active | Active | Active
